Test results taken from paper PMC9424235, “Small molecule-mediated allosteric activation of the base excision repair enzyme 8-oxoguanine DNA glycosylase and its impact on mitochondrial function” (Scientific Reports, 2022).
Several values for one entry are separate records, joined by “and”; a condition that tells them apart may be missing. Equal entries are not always repeated. Each block holds one compound with its values, some of them ahead of it.

Tests used:
[1] = system: OGG1; design: method as in PMID 12592398; details: cited from earlier work
[2] = biological target: human OGG1 (Homo sapiens, UniProt O15527); experiment: Fluorescent steady-state kinetic assay of OGG1 activation (initial rates; screening concentration response)
[3] = system: A549 cells; experiment: ROS production with CM-H2DCFDA (DCF) imaging; type: cell-based, human; details: for EC50: Homo sapiens
[4] = system: A549 cells; experiment: Mitochondrial ROS with MitoSOX; type: cell-based, human
[5] = system: A549 cells; experiment: Nuclear DNA damage by γ-H2AX staining; type: cell-based, human
[6] = system: A549 cells; experiment: Mitochondrial membrane integrity (MitoTracker orange texture analysis); type: cell-based, human; details: 24 h
[7] = system: A549 cells; experiment: mtDNA damage by long/short chain PCR; type: cell-based, human; details: PQ 0.3–3 mM
[8] = system: A549 cells; experiment: Measurement of energy metabolites (ATP, ADP); type: cell-based, human
[9] = system: A549 cells; experiment: TOM20 immunofluorescence; type: cell-based, human; details: 0.3 mM PQ, 48 h
[10] = system: A549 cells; experiment: DRP1 content by quantitative imaging; type: cell-based, human; details: 0.6 mM PQ, 48 h
[11] = system: A549 cells; experiment: DNA ligase III (LIG3) protein content by imaging; type: cell-based, human; details: 48 h of PQ at either 0.6 or 1 mM
[12] = system: A549 cells; experiment: OGG1 content by imaging; type: cell-based, human; details: 0.6 mM PQ, N = 1 in triplicate
[13] = initial rate analysis, random mechanism

human OGG1, sequence (O15527 12-345): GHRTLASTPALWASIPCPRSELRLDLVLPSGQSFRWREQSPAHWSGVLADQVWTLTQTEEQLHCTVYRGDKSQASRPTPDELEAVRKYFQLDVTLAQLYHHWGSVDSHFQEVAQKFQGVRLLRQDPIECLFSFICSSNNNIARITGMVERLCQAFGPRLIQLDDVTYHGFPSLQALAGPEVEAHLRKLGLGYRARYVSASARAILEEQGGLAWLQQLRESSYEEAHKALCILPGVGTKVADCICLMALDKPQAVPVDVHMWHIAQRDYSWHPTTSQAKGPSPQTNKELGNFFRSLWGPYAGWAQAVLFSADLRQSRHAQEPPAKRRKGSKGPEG

SMILES: Nc1nc2nc(N)[nH]c2c(=O)[nH]1 [Compound 8-aminoGua, 8-aminoguanine]
acceleration / activation level of AP lyase activity [1]: > 35 fold
substrate turnover [1]: 72%

β value as percent of catalytic activity of OGG1 in the presence of 8-bromoGua [2]: 50%
OGG1 initial rate relative to that in the presence of 200 μM 8-bromoGua ([2]; 200 μM activator, substrate 80 nM): ~ 25%
Km ([2]; initial rate analysis with activator and Substrate A varied, OGG1 10 nM): 0.015 ± 0.003 µM
kcat ([2]; initial rate analysis with activator and Substrate A varied, OGG1 10 nM, random mechanism fit): 0.006 ± 0.001 s⁻¹ and 0.006 ± 1 s⁻¹
α (coefficient of interaction between activator and substrate) [2, 13]: 1.3 ± 0.4
β (factor of kcat activation) [2, 13]: 18 ± 3
SMILES: Nc1nc2cc[nH]c2c(=O)[nH]1 [Compound 9-deazaGua, 9-deazaguanine]

SMILES: C[n+]1ccc(-c2cc[n+](C)cc2)cc1.[Cl-].[Cl-] [Paraquat, N, N′-dimethyl-4,4′-bipyridinium dichloride]
maximum ROS (DCF) over baseline ([3]; 0.6 mM, 48 h): 30 fold
maximum ROS (DCF) over baseline ([3]; 3 mM, 24 h): 30 fold
EC50 ([3]; A549, 24 h): 1600 µM
EC50 ([3]; A549, 48 h): 340 µM
maximal mitochondrial ROS signal intensity (MitoSOX) ([4]; 3 mM): 1.75 fold
EC50 ([4]; Homo sapiens, A549, 24 h of exposure): 280 µM
rise in γH2AX (nuclear DNA damage) [5]: 2 fold
concentration giving maximum effect on mitochondrial membrane integrity [6]: 3000 µM
concentration giving maximal mtDNA damage [7]: 600 µM
ATP levels ([8]; 24 h with PQ, concentrations not given at the place, listed as PQ): 3.13 ± 0.14 μmol/gm protein and 2.49 ± 0.67 μmol/gm protein and 1.99 ± 0.45 μmol/gm protein
ADP levels ([8]; PQ 3 mM, 48 h, time-course experiment): 68.69 ± 1.47 μmol/gm protein
ATP Average ([8]; paraquat 0.3 mM alone, 48 h): 2.56 µmols/g protein and 2.83 µmols/g protein and 1.89 µmols/g protein
ATP Average ([8]; paraquat 0.6 mM alone, 48 h): 1.43 µmols/g protein and 1.67 µmols/g protein and 1.19 µmols/g protein
ATP Average ([8]; paraquat 1 mM alone, 48 h): 1.47 µmols/g protein and 0.92 µmols/g protein and 1.02 µmols/g protein
ADP Average ([8]; paraquat 3 mM alone, 48 h): 40.48 µmols/g protein and 41.33 µmols/g protein and 53.45 µmols/g protein
ATP Average ([8]; paraquat 3 mM alone, 48 h): 0.96 µmols/g protein and 0.61 µmols/g protein and 0.63 µmols/g protein
ATP Average ([8]; paraquat 3 mM alone, 48 h, listed as PQ): 0.63 ± 0.05 µmols/g protein and 0.96 ± 0.10 µmols/g protein and 0.61 ± 0.09 µmols/g protein
TOM20 immunofluorescence increase above baseline [9]: ~25%
decline of DRP1 content compared to control [10]: about 24 ± 0.02%
decline of LIG3 levels [11]: about 50%
increase of OGG1 content above baseline [12]: 88.3%
